According to ChEMBL document CHEMBL5257024, “Synthesis of α,β-Unsaturated Carbonyl-Based Compounds, Oxime and Oxime Ether Analogs as Potential Anticancer Agents for Overcoming Cancer Multidrug Resistance by Modulation of Efflux Pumps in Tumor Cells” (J Med Chem, 2016):

Columns and labels:
[1] = test system: HT-29; experiment: cells; details: Homo sapiens, HT-29, 48 h
Description: Antiproliferative activity against human HT-29 cells assessed as inhibition of cell growth incubated for 48 hrs by propidium iodide staining based fluorometer assay

[2] = test system: PANC-1; experiment: cells; details: Homo sapiens, PANC-1, 48 h
Description: Antiproliferative activity against human PANC-1 cells assessed as inhibition of cell growth incubated for 48 hrs by propidium iodide staining based fluorometer assay

[3] = test system: NCI-H460; experiment: cells; details: Homo sapiens, NCI-H460, 48 h
Description: Antiproliferative activity against human NCI-H460 cells assessed as inhibition of cell growth incubated for 48 hrs by propidium iodide staining based fluorometer assay

[4] = test system: MCF7; experiment: Antiproliferative activity against human MCF7 cells assessed as inhibition of cell growth incubated for 48 hrs by propidium iodide staining based fluorometer assay; assay type: functional; details: MCF7, 48 h
[5] = test system: PC-3; experiment: cells; details: Homo sapiens, PC-3, 48 h
Description: Antiproliferative activity against human PC-3 cells assessed as inhibition of cell growth incubated for 48 hrs by propidium iodide staining based fluorometer assay

[6] = test system: MIA PaCa-2; experiment: Antiproliferative activity against human MIA PaCa-2 cells assessed as inhibition of cell growth incubated for 48 hrs by propidium iodide staining based fluorometer assay; assay type: functional; details: MIA PaCa-2, 48 h
[7] = test system: A549; experiment: Antiproliferative activity against human A549 cells assessed as inhibition of cell growth incubated for 48 hrs by propidium iodide staining based fluorometer assay; assay type: functional; details: A549, 48 h
[8] = Cytotoxicity against human MCF-10A cells assessed as cell viability incubated for 96 hrs by MTT assay; assay type: toxicity, cell-based; design: concentration or dose not given beside the values; details: read-out: Activity

Structure (SMILES)	IC50 [1]	IC50 [2]	IC50 [3]	IC50 [4]	IC50 [5]	IC50 [6]	IC50 [7]	viability at 96 h [8]
COc1cccc(/C=C2\CCc3ccc([N+](=O)[O-])cc3C2=O)c1Cl	3.5 µM	3.5 µM	3.1 µM	3.3 µM	3.1 µM	3.4 µM	3.6 µM	95%
COc1ccc(/C=C2\CCc3ccc([N+](=O)[O-])cc3C2=O)c(Cl)c1OC	1.9 µM	1.9 µM	1.8 µM	2.3 µM	1.6 µM	1.7 µM	1.9 µM	90%
COc1cc(/C=C2\CN(C)C/C(=C\c3cc(OC)c(OC)c(OC)c3Br)C2=O)c(Br)c(OC)c1OC	1.1 µM	1.8 µM	1.8 µM	1.9 µM	1.6 µM	1.9 µM	1.3 µM	92%
COc1ccc(OC)c2c1CC/C(=C\c1ccc(OC)c(OC)c1Cl)C2=O	4 µM	4.3 µM	3.8 µM	4.1 µM	4.5 µM	3.9 µM	4.3 µM	90%
COc1cc(/C=C2\CCc3ccc(Cl)cc3C2=O)c(Br)c(OC)c1OC	9.9 µM	10.2 µM	10.7 µM	12.9 µM	10.2 µM	10.4 µM	10.7 µM	90%
COc1cccc(/C=C2\CCc3ccc(F)cc3C2=O)c1Cl	12.9 µM	12.4 µM	15.2 µM	12.9 µM	12.6 µM	15.2 µM	11.1 µM	90%
COc1ccc2c(c1)CC/C(=C\c1cc(OC)c(OC)c(OC)c1Br)C2=O	1.5 µM	1.4 µM	1.9 µM	1.9 µM	1.5 µM	1.6 µM	1.9 µM	90%

More lines, main results first:

IC50 [1]	IC50 [2]	IC50 [3]	IC50 [4]	IC50 [5]	IC50 [6]	IC50 [7]	Structure (SMILES)	viability at 96 h [8]
8.4 µM	8.3 µM	9.6 µM	8.8 µM	9.9 µM	9.8 µM	8.7 µM	COc1cccc(/C=C2\CC(C)c3ccccc3C2=O)c1Cl (configuration not stated)	98%
2.9 µM	2.4 µM	2.2 µM	2.1 µM	2.4 µM	2.3 µM	2.6 µM	COc1cc(/C=C2\CC(C)c3ccccc3C2=O)c(Br)c(OC)c1OC (configuration not stated)	92%
3.7 µM	4.2 µM	4.1 µM	4.7 µM	5.2 µM	4.2 µM	3.9 µM	COc1ccc(/C=C2\CCC/C(=C\c3ccc(OC)c(OC)c3Cl)C2=O)c(Cl)c1OC	90%
7.4 µM	7.5 µM	7.3 µM	8.4 µM	7.6 µM	7.7 µM	7.3 µM	COc1cccc(/C=C2\CNC/C(=C\c3cccc(OC)c3Cl)C2=O)c1Cl	94%
2 µM	2.4 µM	2.6 µM	3.1 µM	2.9 µM	2.6 µM	2.6 µM	COc1cc(/C=C2\CCC/C(=C\c3cc(OC)c(OC)c(OC)c3Br)C2=O)c(Br)c(OC)c1OC	89%
2.1 µM	2.2 µM	2.5 µM	2.9 µM	2.5 µM	2.6 µM	2.6 µM	COc1cc(/C=C2\CCC/C(=C\c3cc(OC)c(OC)c(OC)c3Br)C2=NO)c(Br)c(OC)c1OC	95%
4.4 µM	4.2 µM	4 µM	4.4 µM	4.9 µM	4.6 µM	4 µM	COc1cccc(/C=C2\CN(C)C/C(=C\c3cccc(OC)c3Cl)C2=O)c1Cl	91%
